US20250120989A1, “BRIDGED TRICYCLIC CARBAMOYLPYRIDONE COMPOUNDS AND USES THEREOF” (priority 2023, published 2025)
Values after ≈ are worked out from the molar mass of the structure shown.

What was measured:
[1] = test system: HIV-1 (IIIB); experiment: microbe, parasite or virus in culture; assay type: cell-based; settings: Human immunodeficiency virus 1, MT4, 120 h; HIV-1 (IIIB) replication in MT-4 cells, 5 days, Cell Titer Glo; read-out: MT4 EC50
[2] = in vitro; settings: human, uninfected MT-4 cells
[3] = physchem; settings: FaSSIF, 23 °C, thermodynamic from solid

Row | Compound | EC50 [1] [µM] | CC50 at 5 days [2] [µM] | solubility thermodynamic at 24 h [3] [µg/mL]
1 | CC1=NO[C@@]2(CC[C@H](C)N3C[C@H]2n2cc(C(=O)NCc4ccc(F)cc4F)c(=O)c(OCOC(=O)CC(C)(C)CN(CC(=O)O)C(=O)OCOP(=O)(O)O)c2C3=O)C1 [Compound 42, N-(4-((((3′S,5S,7′R)-10′-((2,4-difluorobenzyl)carbamoyl)-3,3′-dimethyl-1′,11′-dioxo-1′,4′,5′,11′-tetrahydro-3′H,4H,7′H-spiro[isoxazole-5,6′-[2,7]methanopyrido[1,2-a][1,4]diazonin]-12′-yl)oxy)methoxy)-2,2-dimethyl-4-oxobutyl)-N-(((phosphonooxy)methoxy)carbonyl)glycine] | 0.00106 | 10.3 | 5080 (≈ 6.04 mM)
2 | COC1=NO[C@@]2(CC[C@H](C)N3C[C@H]2n2cc(C(=O)NCc4ccc(F)cc4F)c(=O)c(OCOC(=O)O[C@@H](C)[C@H](C)OP(=O)(O)O)c2C3=O)C1 [Compound 29, (((3′S,5S,7′R)-10′-((2,4-difluorobenzyl)carbamoyl)-3-methoxy-3′-methyl-1′,11′-dioxo-1′,4′,5′,11′-tetrahydro-3′H,4H,7′H-spiro[isoxazole-5,6′-[2,7]methanopyrido[1,2-a][1,4]diazonin]-12′-yl)oxy)methyl ((2S,3S)-3-(phosphonooxy)butan-2-yl) carbonate] | 0.00487 | 29 | 4880 (≈ 6.7 mM)
3 | CC[C@H](COP(=O)(O)O)OC(=O)OCOc1c2n(cc(C(=O)NCc3ccc(F)cc3F)c1=O)[C@@H]1CN(C2=O)[C@@H](C)CC[C@]12CC(C)=NO2 [Compound 25, (((3′S,5S,7′R)-10′-((2,4-difluorobenzyl)carbamoyl)-3,3′-dimethyl-1′,11′-dioxo-1′,4′,5′,11′-tetrahydro-3′H,4H,7′H-spiro[isoxazole-5,6′-[2,7]methanopyrido[1,2-a][1,4]diazonin]-12′-yl)oxy)methyl ((R)-1-(phosphonooxy)butan-2-yl) carbonate] | 0.00221 | 13.9 | 5130 (≈ 7.2 mM)
4 | COC1=NO[C@@]2(CC[C@H](C)N3C[C@H]2n2cc(C(=O)NCc4ccc(F)cc4F)c(=O)c(OCOC(=O)OCC(C)(C)COP(=O)(O)O)c2C3=O)C1 [Compound 32, (((3′S,5S,7′R)-10′-((2,4-difluorobenzyl)carbamoyl)-3-methoxy-3′-methyl-1′,11′-dioxo-1′,4′,5′,11′-tetrahydro-3′H,4H,7′H-spiro[isoxazole-5,6′-[2,7]methanopyrido[1,2-a][1,4]diazonin]-12′-yl)oxy)methyl (2,2-dimethyl-3-(phosphonooxy)propyl) carbonate] | 0.00292 | 17.7 | 4800 (≈ 6.47 mM)
5 | CC1=NO[C@@]2(CC[C@H](C)N3C[C@H]2n2cc(C(=O)NCc4ccc(F)cc4F)c(=O)c(OCOC(=O)OCC[N+](C)(C)C)c2C3=O)C1 [Compound 15, 2-((((((3′S,5S,7′R)-10′-((2,4-difluorobenzyl)carbamoyl)-3,3′-dimethyl-1′,11′-dioxo-1′,4′,5′,11′-tetrahydro-3′H,4H,7′H-spiro[isoxazole-5,6′-[2,7]methanopyrido[1,2-a][1,4]diazonin]-12′-yl)oxy)methoxy)carbonyl)oxy)-N,N,Ntrimethylethan-1-aminium trifluoroacetic acid] |  | 17.3 | 4370
6 | CC1=NO[C@@]2(CC[C@H](C)N3C[C@H]2n2cc(C(=O)NCc4ccc(F)cc4F)c(=O)c(OCOC(=O)N(CCOP(=O)(O)O)CC(=O)O)c2C3=O)C1 [Compound 46, N-(((((3′S,5S,7′R)-10′-((2,4-difluorobenzyl)carbamoyl)-3,3′-dimethyl-1′,11′-dioxo-1′,4′,5′,11′-tetrahydro-3′H,4H,7′H-spiro[isoxazole-5,6′-[2,7]methanopyrido[1,2-a][1,4]diazonin]-12′-yl)oxy)methoxy)carbonyl)-N-(2-(phosphonooxy)ethyl)glycine] |  | 50 | 4980 (≈ 6.72 mM)
